# Source: US20200216439A1, “HETERO-1,5,6,7-TETRAHYDRO-4H-INDOL-4-ONES” (BAYER PHARMA AKTIENGESELLSCHAFT, priority 2015, published 2020)
# Molecular target: T1, catalytic domain of human Bub1 (amino acids 704-1085) (Homo sapiens, UniProt O43683)
# T1 construct: catalytic domain of human Bub1 (amino acids 704-1085); His6 (N); made in house; host or cells: Hi5 insect cells
# Test: Bub1 kinase assay (TR-FRET)
# Format: biochemical
# Conditions: TR-FRET; ATP 10 μM, peptide substrate 1 μM; 60 min at 22° C.; average or median if tested more than once; read-out: Inhibition of Bub1 kinase IC50
# Method in brief: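 Human Bub1 catalytic domain (704-1085, His6-tagged, Hi5-expressed, ~200 ng/mL) preincubated with compound 15 min at 22 °C, then reacted 60 min at 22 °C with 10 μM ATP and 1 μM biotinylated peptide substrate, pH 7.5. EDTA stop; TR-FRET 665/620 ratio; IC50 from 4-parameter fit, 11 concentrations in duplicate.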
# T1 sequence (O43683 704-1085): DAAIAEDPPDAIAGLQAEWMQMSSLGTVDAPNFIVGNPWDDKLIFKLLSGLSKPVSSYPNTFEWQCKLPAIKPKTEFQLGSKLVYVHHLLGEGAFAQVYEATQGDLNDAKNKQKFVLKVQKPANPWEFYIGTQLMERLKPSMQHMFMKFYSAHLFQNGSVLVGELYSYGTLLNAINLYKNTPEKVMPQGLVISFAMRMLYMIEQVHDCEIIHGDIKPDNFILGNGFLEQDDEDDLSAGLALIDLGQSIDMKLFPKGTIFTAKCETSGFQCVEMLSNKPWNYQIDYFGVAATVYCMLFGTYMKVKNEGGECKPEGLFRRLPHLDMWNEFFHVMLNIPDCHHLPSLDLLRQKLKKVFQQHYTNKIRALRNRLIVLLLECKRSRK
row,Compound,IC50 [nM]
1,"O=C1CN(C(=O)N2CCCC2)Cc2[nH]c(-c3ccncc3)c(Nc3ccccc3)c21 [Example 92, 3-(phenylamino)-2-(pyridin-4-yl)-6-(pyrrolidin-1-ylcarbonyl)-1,5,6,7-tetrahydro-4H-pyrrolo[2,3-c]pyridin-4-one]",4
2,"O=C(Nc1cc(-c2[nH]c3c(c2Nc2ccccc2)C(=O)CN(S(=O)(=O)c2cnc[nH]2)C3)ccn1)c1cncs1 [Example 161, N-{4-[3-Anilino-6-(1H-imidazol-5-ylsulfonyl)-4-oxo-4,5,6,7-tetrahydro-1H-pyrrolo[2,3-c]pyridin-2-yl]pyridin-2-yl}-1,3-thiazole-5-carboxamide]",5
3,"CC(=O)Nc1cc(-c2[nH]c3c(c2Nc2ccccc2)C(=O)CN(C(=O)N2CCCC2)C3)ccn1 [Example 126, N-{4-[3-Anilino-4-oxo-6-(pyrrolidin-1-ylcarbonyl)-4,5,6,7-tetrahydro-1H-pyrrolo[2,3-c]pyridin-2-yl]pyridin-2-yl}acetamide]",7
4,"COc1ccc(C(=O)Nc2cc(-c3[nH]c4c(c3Nc3ccccc3)C(=O)CN(C(C)=O)C4)ccn2)cc1F [Example 285, N-4-[6-Acetyl-4-oxo-3-(phenylamino)-4,5,6,7-tetrahydro-1H-pyrrolo[2,3-c]pyridin-2-yl]pyridin-2-yl-3-fluoro-4-methoxybenzamide]",6
5,"O=C1CN(S(=O)(=O)CCC(F)(F)F)Cc2[nH]c(-c3ccncc3)c(Nc3ccccc3)c21 [Example 69, 3-(phenylamino)-2-(pyridin-4-yl)-6-[(3,3,3-trifluoropropyl)sulfonyl]-1,5,6,7-tetrahydro-4H-pyrrolo[2,3-c]pyridin-4-one]",4
6,"CCC(=O)N1CC(=O)c2c([nH]c(-c3ccnc(NC(=O)[C@@H]4C[C@@H]4F)c3)c2Nc2ccccc2)C1 [Example 198, (1S,2S)-2-Fluoro-N-4-[4-oxo-3-(phenylamino)-6-propanoyl-4,5,6,7-tetrahydro-1H-pyrrolo[2,3-c]pyridin-2-yl]pyridin-2-ylcyclopropanecarboxamide]",3
7,"Cc1cnccc1-c1[nH]c2c(c1Nc1ccccc1)C(=O)CN(C(=O)OC(C)(C)C)C2 [Example 99, tert-Butyl 2-(3-methylpyridin-4-yl)-4-oxo-3-(phenylamino)-1,4,5,7-tetrahydro-6H-pyrrolo[2,3-c]pyridine-6-carboxylate]",205
8,"O=C(Nc1cc(-c2[nH]c3c(c2Nc2ccccc2)C(=O)COC3)ccn1)c1ccc(F)c(F)c1 [Example 154, N-[4-(3-Anilino-4-oxo-1,4,5,7-tetrahydropyrano[3,4-b]pyrrol-2-yl)pyridin-2-yl]-3,4-difluorobenzamide]",19
9,"COc1cnccc1-c1[nH]c2c(c1Nc1ccccc1)C(=O)CN(S(=O)(=O)CCC(F)(F)F)C2 [Example 111, 2-(3-Methoxypyridin-4-yl)-3-(phenylamino)-6-[(3,3,3-trifluoropropyl)sulfonyl]-1,5,6,7-tetrahydro-4H-pyrrolo[2,3-c]pyridin-4-one]",7
10,"O=C1CN(S(=O)(=O)C2CCOCC2)Cc2[nH]c(-c3ccncc3)c(Nc3ccccc3)c21 [Example 70, 3-(phenylamino)-2-(pyridin-4-yl)-6-(tetrahydro-2H-pyran-4-ylsulfonyl)-1,5,6,7-tetrahydro-4H-pyrrolo[2,3-c]pyridin-4-one]",7
11,"CC(=O)Nc1cc(-c2[nH]c3c(c2Nc2ccccc2)C(=O)CN(C(=O)N2CCOCC2)C3)ccn1 [Example 125, N-{4-[3-Anilino-6-(morpholin-4-ylcarbonyl)-4-oxo-4,5,6,7-tetrahydro-1H-pyrrolo[2,3-c]pyridin-2-yl]pyridin-2-yl}acetamide]",10
12,"CN1CCN(C(=O)N2CC(=O)c3c([nH]c(-c4ccncc4OCC(F)(F)F)c3Nc3ccccc3)C2)CC1 [Example 246, 6-[(4-Methylpiperazin-1-yl)carbonyl]-3-(phenylamino)-2-[3-(2,2,2-trifluoroethoxy)pyridin-4-yl]-1,5,6,7-tetrahydro-4H-pyrrolo[2,3-c]pyridin-4-one]",319
13,"CNC(=O)N1CC(=O)c2c([nH]c(-c3ccncc3OCC(F)F)c2Nc2ccccc2)C1 [Example 237, 2-[3-(2,2-Difluoroethoxy)pyridin-4-yl]-N-methyl-4-oxo-3-(phenylamino)-1,4,5,7-tetrahydro-6H-pyrrolo[2,3-c]pyridine-6-carboxamide]",18
14,"CC(=O)N1CC(=O)c2c([nH]c(-c3ccnc(NC(=O)c4ccc(F)cc4)c3)c2Nc2ccccc2)C1 [Example 271, N-4-[6-Acetyl-4-oxo-3-(phenylamino)-4,5,6,7-tetrahydro-1H-pyrrolo[2,3-c]pyridin-2-yl]pyridin-2-yl-4-fluorobenzamide]",5
15,"CC(=O)Nc1cc(-c2[nH]c3c(c2Nc2ccccc2)C(=O)CN(C(=O)c2cnco2)C3)ccn1 [Example 176, N-{4-[3-Anilino-6-(1,3-oxazol-5-ylcarbonyl)-4-oxo-4,5,6,7-tetrahydro-1H-pyrrolo[2,3-c]pyridin-2-yl]pyridin-2-yl}acetamide]",16
16,"CNS(=O)(=O)N1CC(=O)c2c([nH]c(-c3ccnc(NC(C)=O)c3)c2Nc2ccc(F)cc2)C1 [Example 315, N-(4-(3-[(4-Fluorophenyl)amino]-6-(methylsulfamoyl)-4-oxo-4,5,6,7-tetrahydro-1H-pyrrolo[2,3-c]pyridin-2-yl)pyridin-2-yl)acetamide]",4
17,"O=C(CC(F)(F)F)Nc1cc(-c2[nH]c3c(c2Nc2ccccc2)C(=O)COC3)ccn1 [Example 36, 3,3,3-Trifluoro-N-{4-[4-oxo-3-(phenylamino)-1,4,5,7-tetrahydropyrano[3,4-b]pyrrol-2-yl]pyridin-2-yl}propanamide]",79
18,"CCOC(=O)N1CC(=O)c2c([nH]c(-c3ccnc(NC(C)=O)c3)c2Nc2ccccc2)C1 [Example 183, Ethyl 2-(2-acetamidopyridin-4-yl)-3-anilino-4-oxo-1,4,5,7-tetrahydro-6H-pyrrolo[2,3-c]pyridine-6-carboxylate]",9
19,"CCNC(=O)N1CC(=O)c2c([nH]c(-c3ccnc(NC(=O)[C@@H]4C[C@@H]4F)c3)c2Nc2ccccc2)C1 [Example 208, N-Ethyl-2-[2-([(1S,2S)-2-fluorocyclopropyl]carbonylamino)pyridin-4-yl]-4-oxo-3-(phenylamino)-1,4,5,7-tetrahydro-6H-pyrrolo[2,3-c]pyridine-6-carboxamide]",5
20,"COc1ccc(C(=O)Nc2cc(-c3[nH]c4c(c3Nc3ccccc3)C(=O)CNC4)ccn2)cc1F [Example 284, 3-Fluoro-4-methoxy-N-4-[4-oxo-3-(phenylamino)-4,5,6,7-tetrahydro-1H-pyrrolo[2,3-c]pyridin-2-yl]pyridin-2-ylbenzamide]",52
21,"O=C1COCc2[nH]c(-c3ccnc(NC(=O)C4CC4)c3)c(Nc3ccccc3)c21 [Example 35, N-{4-[4-Oxo-3-(phenylamino)-1,4,5,7-tetrahydropyrano[3,4-b]pyrrol-2-yl]pyridin-2-yl}cyclopropanecarboxamide]",55
22,"COc1cnccc1-c1[nH]c2c(c1Nc1ccccc1)C(=O)CN(C(=O)OC(C)(C)C)C2 [Example 102, tert-Butyl 2-(3-methoxypyridin-4-yl)-4-oxo-3-(phenylamino)-1,4,5,7-tetrahydro-6H-pyrrolo[2,3-c]pyridine-6-carboxylate]",17
23,"CC(=O)Nc1cc(-c2[nH]c3c(c2Nc2ccccc2)C(=O)CN(C(=O)C(C)C)C3)ccn1 [Example 170, N-[4-(3-Anilino-6-isobutyryl-4-oxo-4,5,6,7-tetrahydro-1H-pyrrolo[2,3-c]pyridin-2-yl)pyridin-2-yl]acetamide]",5
24,"CC(=O)Nc1cc(-c2[nH]c3c(c2Nc2ccccc2)C(=O)CN(C(=O)c2ccncc2)C3)ccn1 [Example 116, N-{4-[4-Oxo-3-(phenylamino)-6-(pyridin-4-ylcarbonyl)-4,5,6,7-tetrahydro-1H-pyrrolo[2,3-c]pyridin-2-yl]pyridin-2-yl}acetamide]",26
25,"CC(C)(C)OC(=O)N1CC(=O)c2c([nH]c(-c3ccnc(NC(=O)c4ccc(F)cc4)c3)c2Nc2ccccc2)C1 [Example 133, tert-Butyl 3-anilino-2-{2-[(4-fluorobenzoyl)amino]pyridin-4-yl}-4-oxo-1,4,5,7-tetrahydro-6H-pyrrolo[2,3-c]pyridine-6-carboxylate]",28
26,"COCCOc1cnccc1-c1[nH]c2c(c1Nc1ccccc1)C(=O)CN(C(=O)OC(C)(C)C)C2 [Example 222, tert-Butyl 3-anilino-2-[3-(2-methoxyethoxy)pyridin-4-yl]-4-oxo-1,4,5,7-tetrahydro-6H-pyrrolo[2,3-c]pyridine-6-carboxylate]",9
27,"CN(C)CCOc1cnccc1-c1[nH]c2c(c1Nc1ccccc1)C(=O)CN(S(=O)(=O)N(C)C)C2 [Example 279, 2-3-[2-(Dimethylamino)ethoxy]pyridin-4-yl-N,N-dimethyl-4-oxo-3-(phenylamino)-1,4,5,7-tetrahydro-6H-pyrrolo[2,3-c]pyridine-6-sulfonamide]",6
28,"O=C1COCc2[nH]c(-c3ccncc3Cl)c(Nc3ccccc3)c21 [Example 42, 2-(3-Chloropyridin-4-yl)-3-(phenylamino)-1,7-dihydropyrano[3,4-b]pyrrol-4(5H)-one]",77
29,"O=C1CSCc2[nH]c(-c3ccncc3)c(Nc3ccccc3)c21 [Example 4, 3-(phenylamino)-2-(pyridin-4-yl)-1,7-dihydrothiopyrano[3,4-b]pyrrol-4(5H)-one]",19
30,"CC(=O)Nc1cc(-c2[nH]c3c(c2Nc2ccc(F)cc2)C(=O)CNC3)ccn1 [Example 302, N-(4-{3-[(4-Fluorophenyl)amino]-4-oxo-4,5,6,7-tetrahydro-1H-pyrrolo[2,3-c]pyridin-2-yl}pyridin-2-yl)acetamide]",297
